{"source": "patent US20130158098A1", "about": "“Alkenyl Substituted Cycloaliphatic Compounds as Chemical Inducers of Proximity” (priority 2010, published 2013)", "assay": "ABA stability in cell culture (luciferase biofunctional readout)", "type": "in vitro ADME, Chinese hamster", "description": "FIG. 3C provides the results of a stability test of ABA in cell culture conditions. CHO cells were pre-transfected with the activation and reporter DNA constructs for 24 hours. 100 μM ABA was then added to the culture and cells were assayed for luciferase activity after 10 hours. During the 10-hour incubation, the cell culture media were replaced with media containing freshly added ABA every 1, 2.5, 5 hour or no replacement. FIG. 4A illustrates the results of an experiment in which human serum pre-incubated ABA was used to induce luciferase transcription. ABA was incubated with pure non-heat inactivated human serum at 37° C. for indicated time period. ABA containing serum was then added to the CHO cell culture to a final 100 μM ABA concentration for 25 hours and cells were assayed for luciferase activity. The cells were pre-transfected with the activation and reporter DNA constructs for 24 hours. FIG. 4B illustrates the results of an experiment in which fetal bovine serum pre-incubated ABA was used to induce luciferase transcription. ABA was incubated with pure heat inactivated fetal bovine serum at 37° C. for indicated time period. ABA containing serum was then added to the CHO cell culture to a final 100 μM ABA concentration for 10 hours and cells were assayed for luciferase activity. The cells were pre-transfected with the activation and reporter DNA constructs for 24 hours.\nIn plants, ABA had been reported to be unstable due to active enzymatic degradation (Cutler, A. J. and Krochko, J. E. (1999) Formation and breakdown of ABA. Trends Plant Sci. 4, 472-478). […] The activity of residual ABA in the serum was measured by its ability to induce the transcriptional activation of the luciferase reporter in cells expressing the ABA-activator cassette. […] Using this assay, the bioavailability in mice was evaluated. […]", "data": [{"smiles": "CC1=CC(=O)CC(C)(C)C1(O)/C=C/C(C)=C/C(=O)O", "note": "(stereo not drawn) [ABA, abscisic acid]", "values": [{"measurement": "ABA activity retained", "setting": "after 24 hours of incubation with CHO cells", "result": "about 60%"}, {"measurement": "ABA activity retained", "setting": "after 48 hours of incubation with CHO cells", "result": "around 23%"}, {"measurement": "reduction in ability to induce transcription of luciferase", "setting": "cell culture media, up to 48 hours", "result": "no significant reduction"}]}]}
